Measured values as given in patent publication US12643867B2, “Compositions and uses thereof” (University of Virginia Patent Foundation, priority 2017, dated 2026).

Legend:
Assay in all cases: SILAC LC-MS ATP acyl phosphate probe competition, native kinases in HEK293T
Type in all cases: binding
[1] = target: T1, BRAF (B-Raf proto-oncogene serine/threonine-protein kinase) (Homo sapiens, UniProt P15056); conditions: site Lys2; ATP 1 mM; Ketanserin, Ritanserin 100 μM; RF001 1 mM
T1 construct: measured against >50 native kinases quantified in HEK293T soluble proteomes; endogenous in cells; host or cells: HEK293T soluble proteome
Procedure, shortened: (§1)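 Light and heavy SILAC HEK293T proteomes (2 mg/ml in kinase buffer) were pre-treated with DMSO or compound (50× stock in DMSO) for 30 min at 25° C, then mixed 1:1, reduced, alkylated and digested with trypsin/Lys-C. Desthiobiotin-labelled peptides were avidin-enriched and analysed by LC-MS/MS on an Orbitrap, top-10 data-dependent acquisition.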

[2] = target: T2, PI42C (Phosphatidylinositol-5-phosphate 4-kinase type-2 gamma) (Homo sapiens, UniProt Q8TBX8); conditions: site C2; ATP 1 mM; Ketanserin, Ritanserin 100 μM; RF001 1 mM
T2 construct: Native kinases; endogenous in cells; host or cells: HEK293T soluble proteome
T2 sequence (Q8TBX8 1-421): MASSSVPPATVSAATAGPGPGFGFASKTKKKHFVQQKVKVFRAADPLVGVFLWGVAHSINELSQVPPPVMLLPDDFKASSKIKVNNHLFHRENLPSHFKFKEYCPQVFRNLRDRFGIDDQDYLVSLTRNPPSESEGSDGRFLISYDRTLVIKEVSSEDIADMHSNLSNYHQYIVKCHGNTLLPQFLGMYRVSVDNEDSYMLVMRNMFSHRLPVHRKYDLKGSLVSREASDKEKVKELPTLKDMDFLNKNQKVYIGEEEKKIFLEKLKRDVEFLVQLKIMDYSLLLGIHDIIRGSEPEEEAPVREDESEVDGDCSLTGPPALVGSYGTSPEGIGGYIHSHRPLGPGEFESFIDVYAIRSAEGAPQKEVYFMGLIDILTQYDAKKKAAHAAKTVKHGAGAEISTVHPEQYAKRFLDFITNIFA
Procedure, shortened: as §1

[3] = target: T3, MP2K4 (Dual specificity mitogen-activated protein kinase kinase 4) (Homo sapiens, UniProt P45985); conditions: site Lys2; ATP 1 mM; Ketanserin, Ritanserin 100 μM; RF001 1 mM
T3 construct: Native kinases; endogenous in cells; host or cells: HEK293T soluble proteome
T3 sequence (P45985 1-399): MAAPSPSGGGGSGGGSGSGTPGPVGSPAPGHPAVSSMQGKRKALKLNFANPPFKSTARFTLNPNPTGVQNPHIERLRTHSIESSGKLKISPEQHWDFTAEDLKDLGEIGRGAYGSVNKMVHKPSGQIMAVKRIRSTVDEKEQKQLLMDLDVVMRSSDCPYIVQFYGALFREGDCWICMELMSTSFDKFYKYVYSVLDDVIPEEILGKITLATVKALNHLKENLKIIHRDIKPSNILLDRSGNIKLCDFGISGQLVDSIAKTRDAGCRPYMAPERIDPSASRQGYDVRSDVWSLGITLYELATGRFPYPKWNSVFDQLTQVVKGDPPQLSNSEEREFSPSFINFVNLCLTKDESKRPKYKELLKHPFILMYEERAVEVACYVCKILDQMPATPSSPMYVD
Procedure, shortened: as §1

[4] = target: T4, M3K4 (Mitogen-activated protein kinase kinase kinase 4) (Homo sapiens, UniProt Q9Y6R4); conditions: site Lys2; ATP 1 mM; Ketanserin, Ritanserin 100 μM; RF001 1 mM
T4 construct: Native kinases; endogenous in cells; host or cells: HEK293T soluble proteome
Procedure, shortened: as §1

T4 sequence (Q9Y6R4 whole entry): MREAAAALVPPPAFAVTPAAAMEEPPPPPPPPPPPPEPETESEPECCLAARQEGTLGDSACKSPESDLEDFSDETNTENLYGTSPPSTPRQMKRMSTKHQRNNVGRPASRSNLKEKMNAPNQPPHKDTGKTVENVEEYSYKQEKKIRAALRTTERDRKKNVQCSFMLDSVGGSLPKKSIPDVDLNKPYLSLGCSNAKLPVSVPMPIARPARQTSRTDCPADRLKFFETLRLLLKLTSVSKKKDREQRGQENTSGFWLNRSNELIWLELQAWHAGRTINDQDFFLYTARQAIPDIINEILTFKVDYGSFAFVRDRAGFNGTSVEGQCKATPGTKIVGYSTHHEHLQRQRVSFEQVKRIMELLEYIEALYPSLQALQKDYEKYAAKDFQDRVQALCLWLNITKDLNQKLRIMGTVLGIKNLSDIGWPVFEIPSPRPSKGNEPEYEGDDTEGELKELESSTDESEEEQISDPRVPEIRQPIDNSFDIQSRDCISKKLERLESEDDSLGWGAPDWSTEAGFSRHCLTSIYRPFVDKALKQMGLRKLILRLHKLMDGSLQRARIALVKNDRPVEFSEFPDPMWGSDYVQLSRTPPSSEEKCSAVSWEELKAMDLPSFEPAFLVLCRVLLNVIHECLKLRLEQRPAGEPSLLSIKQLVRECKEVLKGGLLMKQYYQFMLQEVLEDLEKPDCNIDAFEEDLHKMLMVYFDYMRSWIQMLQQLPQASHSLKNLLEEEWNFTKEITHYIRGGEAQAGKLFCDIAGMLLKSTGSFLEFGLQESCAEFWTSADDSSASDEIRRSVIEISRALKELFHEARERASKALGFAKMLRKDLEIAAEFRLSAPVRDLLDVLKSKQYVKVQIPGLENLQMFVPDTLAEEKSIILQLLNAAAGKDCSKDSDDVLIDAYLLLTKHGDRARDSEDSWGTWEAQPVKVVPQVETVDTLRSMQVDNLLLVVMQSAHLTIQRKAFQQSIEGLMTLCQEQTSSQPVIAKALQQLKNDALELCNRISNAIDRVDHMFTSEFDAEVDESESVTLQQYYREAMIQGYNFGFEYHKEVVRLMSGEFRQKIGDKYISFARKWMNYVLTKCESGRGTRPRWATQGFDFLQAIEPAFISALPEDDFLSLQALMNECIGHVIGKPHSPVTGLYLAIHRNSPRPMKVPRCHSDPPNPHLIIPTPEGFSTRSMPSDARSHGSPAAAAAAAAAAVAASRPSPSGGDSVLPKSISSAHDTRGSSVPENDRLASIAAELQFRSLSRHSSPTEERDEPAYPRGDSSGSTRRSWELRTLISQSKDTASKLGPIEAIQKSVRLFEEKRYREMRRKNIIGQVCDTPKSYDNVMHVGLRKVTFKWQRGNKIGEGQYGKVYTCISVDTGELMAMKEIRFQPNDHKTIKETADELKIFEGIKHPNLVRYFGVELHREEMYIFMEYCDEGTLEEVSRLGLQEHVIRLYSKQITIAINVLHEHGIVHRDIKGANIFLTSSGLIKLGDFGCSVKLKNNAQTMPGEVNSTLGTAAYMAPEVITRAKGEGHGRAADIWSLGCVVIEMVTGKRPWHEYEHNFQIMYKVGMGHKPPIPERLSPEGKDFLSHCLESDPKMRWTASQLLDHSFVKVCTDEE
T1 sequence (P15056 whole entry): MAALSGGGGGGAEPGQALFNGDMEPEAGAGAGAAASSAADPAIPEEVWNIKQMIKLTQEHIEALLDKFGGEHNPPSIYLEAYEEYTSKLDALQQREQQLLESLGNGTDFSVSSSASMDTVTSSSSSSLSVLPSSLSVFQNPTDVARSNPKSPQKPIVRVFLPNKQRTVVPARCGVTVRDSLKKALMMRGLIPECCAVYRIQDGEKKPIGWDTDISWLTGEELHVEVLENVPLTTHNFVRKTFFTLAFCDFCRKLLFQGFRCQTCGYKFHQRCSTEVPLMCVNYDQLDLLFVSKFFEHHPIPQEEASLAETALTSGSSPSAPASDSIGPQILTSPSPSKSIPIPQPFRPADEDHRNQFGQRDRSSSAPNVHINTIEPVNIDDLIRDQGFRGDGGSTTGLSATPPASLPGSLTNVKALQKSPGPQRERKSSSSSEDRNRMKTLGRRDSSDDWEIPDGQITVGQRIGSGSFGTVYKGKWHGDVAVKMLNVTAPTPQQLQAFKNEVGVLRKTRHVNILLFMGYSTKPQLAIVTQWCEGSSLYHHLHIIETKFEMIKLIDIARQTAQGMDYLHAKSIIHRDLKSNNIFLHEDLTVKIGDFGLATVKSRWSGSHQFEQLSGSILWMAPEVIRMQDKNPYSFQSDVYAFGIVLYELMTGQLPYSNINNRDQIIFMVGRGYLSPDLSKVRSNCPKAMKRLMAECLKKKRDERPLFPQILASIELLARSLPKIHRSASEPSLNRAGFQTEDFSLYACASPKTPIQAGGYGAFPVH

## Cc1nc2sccn2c(=O)c1CCN1CCC(=C(c2ccc(F)cc2)c2ccc(F)cc2)CC1 [Ritanserin]
[1]
  SILAC ratio, BRAF probe-modified peptide: 1.8
[2]
  SILAC ratio, PI42C probe-modified peptide: 1.7
[3]
  SILAC ratio, MP2K4 probe-modified peptide: 1.6
[4]
  SILAC ratio, M3K4 probe-modified peptide: 1.9

## Fc1ccc(C(=C2CCNCC2)c2ccc(F)cc2)cc1 [RF001, 4-(Bis(4-fluorophenyl)methylene) piperidine]
[1]
  SILAC ratio, BRAF probe-modified peptide: 1.1
[2]
  SILAC ratio, PI42C probe-modified peptide: 0.8
[3]
  SILAC ratio, MP2K4 probe-modified peptide: 0.9
[4]
  SILAC ratio, M3K4 probe-modified peptide: 0.8

## O=C(c1ccc(F)cc1)C1CCN(CCn2c(=O)[nH]c3ccccc3c2=O)CC1 [Ketanserin]
[1]
  SILAC ratio, BRAF probe-modified peptide: 1.6
[2]
  SILAC ratio, PI42C probe-modified peptide: 1.2
[3]
  SILAC ratio, MP2K4 probe-modified peptide: 1.3
[4]
  SILAC ratio, M3K4 probe-modified peptide: 1.2
